Assay [1] deals with Rattus norvegicus. In words: Ratio of urinary excretion value (urinary volume) in treated rats to that in control rats, at a peroral dose of 25 mg/Kg. It counts as functional, Urine.
Assay [2] has as its system Rattus norvegicus. In words: Effect on urinary excretion potassium and sodium after oral administration of 0.4 mg/kg to rats(potassium and sodium excretion in control rat is 0.175+/-0.014). Format: functional, Urine.
Assay [3] concerns Rattus norvegicus. Put plainly: Ratio of urinary excretion value (urinary volume) in treated rats to that in control rats, at a peroral dose of 0.4 mg/Kg. It counts as functional, Urine.
In assay [4] the test system is Rattus norvegicus. In words: Ratio of sodium ion/potassium ion concentration in treated rats to that in control rats, at a peroral dose of 25 mg/Kg. It counts as functional.
Assay [5] has as its system Rattus norvegicus. In words: Percent inhibition of Urea nitrogen by the compound given as ratio of UN value in treated to vehicle treated ones after intraperitoneal administration of 1 mg/kg of compound to rats(vehicle 182.5+/-3.4). Format: functional. As to conditions: ip.
The test system of assay [6] is Rattus norvegicus. In words: Ratio of urinary excretion value (Na+ concentration) in treated rats to that in control rats, at a peroral dose of 0.4 mg/Kg. Format: functional, Urine.
For assay [7], the system named is Rattus norvegicus. Put plainly: Ratio of urinary excretion value (urinary volume) in treated rats to that in control rats, at a peroral dose of 6.25 mg/Kg. It counts as functional, Urine.
Assay [8] concerns Rattus norvegicus. Put plainly: Effect on urinary excretion potassium and sodium after oral administration of 1.6 mg/kg to rats(potassium and sodium excretion in control rat is 0.122+/-0.008). Format: functional, Urine.
Assay [9] has as its system Rattus norvegicus. Put plainly: Ratio of sodium ion/potassium ion concentration in treated rats to that in control rats, at a peroral dose of 1.6 mg/Kg. It counts as functional.
Assay [10] relates to Rattus norvegicus. In words: Oral diuretic activity was measured after oral administration of 25 mg/kg to rats(control volume is […]+/-[…]). Format: functional, Urine.
The target in assay [11] is T1, Adenosine receptor A1 (Rattus norvegicus, UniProt P25099).
T1 sequence (P25099 whole entry): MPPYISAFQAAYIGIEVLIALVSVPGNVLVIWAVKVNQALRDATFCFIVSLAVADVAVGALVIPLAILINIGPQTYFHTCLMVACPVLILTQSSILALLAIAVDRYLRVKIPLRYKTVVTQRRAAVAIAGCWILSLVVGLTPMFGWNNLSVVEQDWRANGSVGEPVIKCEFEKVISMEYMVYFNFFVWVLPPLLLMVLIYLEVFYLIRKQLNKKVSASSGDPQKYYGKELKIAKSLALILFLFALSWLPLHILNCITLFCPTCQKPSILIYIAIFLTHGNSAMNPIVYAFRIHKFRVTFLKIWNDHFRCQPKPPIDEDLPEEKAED
Description: Binding affinity towards adenosine A1 receptor in rat forebrain membranes using N6-[3H]cyclohexyladenosine

Assay [12] relates to Rattus norvegicus. In words: Ratio of sodium ion/potassium ion concentration in treated rats to that in control rats, at a peroral dose of 0.4 mg/Kg. It counts as functional.
Assay [13] deals with Rattus norvegicus. In words: Ratio of urinary excretion value (Na+ concentration) in treated rats to that in control rats, at a peroral dose of 1.6 mg/Kg. Format: functional, Urine.
The next assay has as its target Adenosine A2 receptor (Rattus norvegicus, UniProt P29276+P30543).
Assay [14] has as its system Rattus norvegicus. In words: Effect on urinary excretion potassium and sodium after oral administration of 25 mg/kg to rats(potassium and sodium excretion in control rat is […]+/-[…]). Format: functional, Urine.
The subject of assay [15] is Rattus norvegicus. In words: Oral diuretic activity was measured after oral administration of 1.6 mg/kg to rats(control volume is 0.83+/-0.07). It counts as functional, Urine.
Assay [16] relates to Rattus norvegicus. In words: Oral diuretic activity was measured after oral administration of 0.4 mg/kg to rats(control volume is 0.94+/-0.03). It counts as functional, Urine.
Assay [17] relates to Rattus norvegicus. Put plainly: Ratio of urinary excretion value (Na+ concentration) in treated rats to that in control rats, at a peroral dose of 6.25 mg/Kg. Format: functional, Urine.
The subject of assay [18] is Rattus norvegicus. In words: Urea nitrogen concentration measured after intraperitoneal administration of 1 mg/kg of compound to rats(vehicle 182.5+/-3.4). It counts as functional.
Assay [19] deals with Rattus norvegicus. Put plainly: Ratio of urinary excretion value (urinary volume) in treated rats to that in control rats, at a peroral dose of 1.6 mg/Kg. It counts as functional, Urine.
For assay [20], the system named is Rattus norvegicus. In words: Serum creatinine concentration measured after intraperitoneal administration of 1 mg/kg of compound to rats(vehicle 5.43+/-0.11). It counts as functional.
The test system of assay [21] is Rattus norvegicus. In words: Percent inhibition of serum creatinine by the compound given as ratio of Cr value in treated to vehicle treated ones after intraperitoneal administration of 1 mg/kg of compound to rats(vehicle 5.43+/-0.11). Format: functional. As to conditions: ip.
The subject of assay [22] is Rattus norvegicus. Put plainly: Ratio of urinary excretion value (Na+ concentration) in treated rats to that in control rats, at a peroral dose of 25 mg/Kg. Format: functional, Urine.
The subject of assay [23] is Rattus norvegicus. Put plainly: Serum creatinine concentration measured after intraperitoneal administration of 1 mg/kg of compound to rats(vehicle 4.41+/-0.17). It counts as functional.
Assay [24] has as its system Rattus norvegicus. Put plainly: Effect on urinary excretion potassium and sodium after oral administration of 0.4 mg/kg to rats(potassium and sodium excretion in control rat is 0.261+/-0.0087). It counts as functional, Urine.
Assay [25] concerns Rattus norvegicus. In words: Percent inhibition of serum creatinine by the compound given as ratio of Cr value in treated to vehicle treated ones after intraperitoneal administration of 1 mg/kg of compound to rats(vehicle 4.41+/-0.17). It counts as functional. As to conditions: ip.
For assay [26], the system named is Rattus norvegicus. In words: Effect on urinary excretion potassium and sodium after oral administration of 25 mg/kg to rats(potassium and sodium excretion in control rat is 0.252+/-0.022). It counts as functional, Urine.
The subject of assay [27] is Rattus norvegicus. In words: Oral diuretic activity was measured after oral administration of 0.4 mg/kg to rats(control volume is […]+/-[…]). Format: functional, Urine.
In assay [28] the target is T2, Adenosine receptor A1 (Cavia porcellus, UniProt P47745).
T2 sequence (P47745 whole entry): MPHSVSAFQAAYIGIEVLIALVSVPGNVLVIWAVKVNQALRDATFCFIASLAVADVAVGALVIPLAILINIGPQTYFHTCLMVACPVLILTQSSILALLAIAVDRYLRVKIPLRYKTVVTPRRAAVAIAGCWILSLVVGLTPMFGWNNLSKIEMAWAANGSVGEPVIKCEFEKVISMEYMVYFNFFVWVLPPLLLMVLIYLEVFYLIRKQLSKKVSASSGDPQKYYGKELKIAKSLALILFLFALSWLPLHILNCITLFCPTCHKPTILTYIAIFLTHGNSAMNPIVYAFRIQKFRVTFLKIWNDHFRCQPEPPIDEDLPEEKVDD
Description: Binding affinity against adenosine A1 receptor in guinea pig forebrain membranes using N6-[3H]cyclohexyladenosine as radioligand

The test system of assay [29] is Rattus norvegicus. In words: Percent inhibition of Urea nitrogen by the compound given as ratio of UN value in treated to vehicle treated ones after intraperitoneal administration of 1 mg/kg of compound to rats(vehicle 147.9+/-6.1). Format: functional. As to conditions: ip.
For assay [30], the system named is Rattus norvegicus. Put plainly: Urea nitrogen concentration measured after intraperitoneal administration of 1 mg/kg of compound to rats(vehicle 147.9+/-6.1). It counts as functional.

The record followed here is ChEMBL document CHEMBL1125524, “Adenosine A1 antagonists. 2. Structure-activity relationships on diuretic activities and protective effects against acute renal failure” (J Med Chem, 1992).

The structures appear in SMILES notation.

In general, inhibition in vivo refers to how much of the control response was suppressed. As usually defined, the Ki is the dissociation constant of the complex between target and ligand, obtained from inhibition or displacement. Low readings indicate higher affinity, high ones lower affinity.

Consider `CCCn1c(=O)c2nc(C(C3CC3)C3CC3)[nH]c2n(CCC)c1=O`, for which the T/C with Rattus norvegicus [1] is 2.44; in the assay with Rattus norvegicus [3], 1.33; in the assay with Rattus norvegicus [6], 1.45; in the assay with Rattus norvegicus [7], 2.39; in the assay on Rattus norvegicus [13], 2.33; in the assay with Rattus norvegicus [17], 2.69. Further, the T/C with Rattus norvegicus [19] came out at 2.2; in the assay on Rattus norvegicus [22], 2.16. Also, the Na was found to be 0.255 m equiv 6hr-1 100g-1 in the assay with Rattus norvegicus [2], 0.284 m equiv 6hr-1 100g-1 in the assay on Rattus norvegicus [8] and 0.35 m equiv 6hr-1 100g-1 in the assay on Rattus norvegicus [14]. The “Na+/K+” value in the assay on Rattus norvegicus [4] was determined as 1.71; in the assay on Rattus norvegicus [9], 1.56; in the assay with Rattus norvegicus [12], 1.27. Further, the inhibition in vivo at 1 mg/kg was 41% in the assay with Rattus norvegicus [5] and 45% with Rattus norvegicus [21]. For the same compound, the Urine volume with Rattus norvegicus [10] is recorded as 2.07 ml 6hr-1 100g-1; with Rattus norvegicus [15], 1.83 ml 6hr-1 100g-1; in the assay with Rattus norvegicus [16], 1.25 ml 6hr-1 100g-1. Also, the inhibition constant Ki was found to be 0.99 nM on Adenosine receptor A1 [11] and 430 nM on Adenosine A2 receptor. The compound also displayed a UN in the assay on Rattus norvegicus [18] of 107.6 mg/dL. Further, the Cr with Rattus norvegicus [20] stood at 5.43 mg/dL.

With `CCCn1c(=O)c2nc(C3CC4C=CC3C4)[nH]c2n(CCC)c1=O` (stereo in doubt; 17), the T/C was determined as 2.06 in the assay with Rattus norvegicus [1]; 0.93 in the assay on Rattus norvegicus [3]; 0.89 in the assay with Rattus norvegicus [6]; 2.56 in the assay with Rattus norvegicus [7]; 2.51 in the assay with Rattus norvegicus [17]; 1.72 in the assay with Rattus norvegicus [22]. The Cr with Rattus norvegicus [23] was 2.08 mg/dL. Moreover, the Na in the assay on Rattus norvegicus [24] was found to be 0.233 m equiv 6hr-1 100g-1; with Rattus norvegicus [26], 0.434 m equiv 6hr-1 100g-1. For the same compound, the inhibition in vivo at 1 mg/kg in the assay with Rattus norvegicus [25] was found to be 53%; in the assay with Rattus norvegicus [29], 56%. For the same compound, the Urine volume came out at 2.47 ml 6hr-1 100g-1 in the assay on Rattus norvegicus [10] and 1.32 ml 6hr-1 100g-1 with Rattus norvegicus [27]. The “Na+/K+” value in the assay on Rattus norvegicus [12] is 0.98. Also, the results for the Ki on Adenosine A2 receptor and at Adenosine receptor A1 [28] were 480 nM and 4.3 nM, respectively. For the same compound, the UN in the assay on Rattus norvegicus [30] amounted to 80.4 mg/dL.
